Test results taken from patent publication EP1412028B1, “TETRAHYDROINDOLONE DERIVATIVES LINKED TO ARYLPIPERAZINES” (Spectrum Pharmaceuticals, Inc., priority 2001, dated 2003).
Where two headings read alike, the source gives them in different places.

Legend:
male C-57 mice = assay: PCP disruption of pre-pulse inhibition (PPI) of the acoustic startle response; type: in vivo; conditions: for ED50: Mus musculus; for PCP Disruption of Pre-pulse Inhibition, reversal: mice, PCP 5mg/kg IP, route not given, NEO compounds as oxalate
Description: The non-competitive NMDA receptor antagonist phencyclidine (PCP) reduces pre-pulse inhibition (PPI) of the acoustic startle response in rodents. […] For testing of PPI, male C-57 mice were assigned to five dose groups of eight animals per group, and vehicle or test compound were administered orally (PO) or subcutaneously (SC) 20 minutes prior to intraperitoneal (IP) administration of vehicle or PCP (5mg/kg). Ten minutes following PCP administration, the mice were placed into Hamilton-Kinder startle chambers and evaluation of pre-pulse inhibition procedure was performed. Following a five-minute acclimatization period with background white noise (65db), mice were exposed to five different trial types. Trials were presented […] in a quasi-random order, with randomized 5 to 25 second inter-trial intervals. Trials were: stimulus only trial (120db white noise, 50ms stimulus); two different prepulse+pulse trials in which a 20ms 5db; or 10db stimuli above a 65db background preceded the 120db pulse by 120ms; a 10dbprepulse without a 120db pulse; and a no stimulus trial, in which only the background noise was presented. Table 2 PCP Pre-pulse Inhibition

mice = assay: Conditioned avoidance responding (CAR, active avoidance); type: in vivo; conditions: for ED50: Mus musculus
Description: Training: Consists of 20 trials with variable inter-trial intervals (Trained to 80% Avoidance Criteria). After a one-minute acclimation period, the house light and an acoustic 90dB tone (conditioned stimuli) are presented. A response (crossing to dark compartment) within 5 seconds ends the trial and trial is recorded as avoidance response (CAR). […] To avoid shock, animals learn to move from the lighted side of the chamber to the dark side when the cue is presented (avoidance) or moved when the shock is administered (escape).Testing: Vehicle or test compounds are administered S.C. 20 minutes before the test session. (Checking for disruption of cognition and attention) Table 3. Conditioned Avoidance Responding

Caco-2 cells [1] = system: Caco-2 cells
Description: (§1) Caco-2 cells were used to evaluate the membrane permeability of eight embodiments of the present invention. Monolayers were grown to confluence and the integrity checked by transepithelial electrical resistance (TEER) and permeability of Lucifer Yellow. The expression of P-glycoprotein was confirmed by measuring the permeability of digoxin alone and in the presence of verapamil. Permeability measurements were taken for each compound in the apical to basolateral (AP-BL) direction, and the basolateral to apical (BL-AP) direction.

Caco-2 cells [2] = assay: Membrane permeability (Papp) across Caco-2 cell monolayers; conditions: for RATIO Papp^B-A/ Papp^A-B / Papp AP- to- BL / Papp BL- to- AP: Caco-2 monolayer; for Papp AP- to- BL: apical to basolateral direction; for Papp BL- to- AP: basolateral to apical direction
Description: as §1

[3] = sc, read-out: PCP Disruption of Pre-pulse Inhibition - SC, 5pp ED50
[4] = sc, read-out: PCP Disruption of Pre-pulse Inhibition - SC, 10pp ED50
[5] = read-out: PCP Disruption of Pre-pulse Inhibition, 10pp ED50
[6] = mice, SC 20 minutes before the test session
[7] = mice, SC 20 minutes before the test session, read-out: Conditioned Avoidance Responding, Latency ED50
[8] = mice, SC 20 minutes before the test session, read-out: Conditioned Avoidance Responding, avoidance ED50
[9] = sc, read-out: Conditioned Avoidance Responding, Latency ED50
[10] = sc, read-out: Conditioned Avoidance Responding, avoidance ED50

Structure (SMILES) | ED50 (male C-57 mice; [3]) [mg/kg] | ED50 (male C-57 mice; [4]) [mg/kg] | ED50 (male C-57 mice; [5]) [mg/kg] | Conditioned Avoidance Responding, overall effect (mice; [6]) | EFFLUX LIMITED (Caco-2 cells [1]) | PERMEABILITY (Caco-2 cells [1]) | RATIO Papp^B-A/ Papp^A-B (Caco-2 cells [2]) | Papp AP- to- BL (Caco-2 cells [2]) [cm/s x 10^6] | Papp BL- to- AP (Caco-2 cells [2]) [cm/s x 10^6] | ED50 (mice; [7]) [mg/kg] | ED50 (mice; [8]) [mg/kg] | Conditioned Avoidance Responding, effect on avoidance (mice; [6]) | Conditioned Avoidance Responding, effect on latency (mice; [6]) | Papp AP- to- BL (Caco-2 cells [1]; human) [cm/s x 10^6] | ED50 (mice; [9]) [mg/kg] | ED50 (mice; [10]) [mg/kg] | PCP Disruption of Pre-pulse Inhibition, reversal (male C-57 mice) | EFFLUX LIMITED (Caco-2 cells [2]; Caco-2, Yes/No judgement) | Conditioned Avoidance Responding, effect on escape or avoidance (mice; [6]) | ED50 (male C-57 mice; read-out: PCP Disruption of Pre-pulse Inhibition, 5pp ED50) [mg/kg]
O=C1CCCc2c1ccn2CCCN1CCN(c2cccc(Cl)c2)CC1 [NEO-363, 1-{3-[4-(3-Chlorophenyl)piperazine-1-yl]propyl}-1,5,6,7-tetrahydroindol-4-one] | 2.3 | 2.3 | 3.1 | No effect | No | High | 0.75 | 18.0±0.7 | 13.1±1.1 | – | – | – | – | – | – | – | – | – | – | –
O=C1CCCc2c1ccn2CCCCN1CCN(c2cccc(C(F)(F)F)c2)CC1 [NEO-392, 1-{4-[4-(3-Trifluoromethylphenyl)piperazin-1-yl]-butyl}-1,5,6,7-tetrahydroindol-4-one] | 0.23 | 0.23 | 1.12 | – | No | High | 0.58 | 27.1±1.1 | 15.7±1.3 | 3.25 | 4.93 | Significant reduction in avoidance | Significant increase in latency | – | – | – | – | – | – | –
CC(C)NCC(O)COc1cccc2ccccc12 (stereo not drawn) [Propranolol, reference compound] | – | – | – | – | No | High | – | – | – | – | – | – | – | 17.3±2.3 | – | – | – | – | – | –
Cc1nc2n(c(=O)c1CCN1CCC(c3noc4cc(F)ccc34)CC1)CCCC2 [Risperidone, risperidone, reference compound] | 0.036 | 0.036 | – | – | – | – | – | – | – | – | – | Significant reduction in avoidance | Significant increase in latency | – | 0.26 | 0.19 | – | – | – | –
O=C1CCCc2c1ccn2CCCN1CCN(c2ncccn2)CC1 [NEO-381, 1-{3-[4-(2-Pyrimidyl)piperazine-1-yl]propyl}-1,5,6,7-tetrahydroindol-4-one] | 0.79 | 3.58 | – | No effect | No | High | 0.77 | 32.9±9.6 | 25.3±0.7 | – | – | – | – | – | – | – | No reversal | – | – | –
CN1CCN(C2=Nc3cc(Cl)ccc3Nc3ccccc32)CC1 [Clozapine, clozapine, reference compound] | 2.87 | 3 | – | – | – | – | 0.65 | 15.3±0.7 | 7.4±1.1 | – | – | – | – | – | 3.03 | 6.3 | – | No | – | –
O=C1CCCc2c1ccn2CCN1CCN(c2cccc(C(F)(F)F)c2)CC1 [NEO-359, 1-{2-[4-(3-Trifluoromethylphenyl)piperazine-1-yl]ethyl}-1,5,6,7-tetrahydroindol-4-one] | 3.58 | 0.79 | – | – | No | High | 0.32 | 24.0±3.9 | 7.6±0.5 | 100 | – | – | Significant decrease in latency | – | – | – | No reversal | – | No effect on escape or avoidance | –
COc1ccccc1N1CCN(CCn2ccc3c2CCCC3=O)CC1 [NEO-377, 1-{2-[4-(2-Methoxyphenyl)-piperazin-1-yl]-ethyl}-1,5,6,7-tetrahydro-indol-4-one] | 2.31 | 1.12 | 2.3 | – | No | High | 0.60 | 26.0±1.8 | 15.5±2.9 | 3 | 7.57 | Significant reduction in avoidance | Significant increase in latency | – | – | – | – | – | – | –
COc1ccccc1N1CCN(CCCn2ccc3c2CCCC3=O)CC1 [NEO-370, 1-{3-[4-(2-Methoxyphenyl)piperazine-1-yl]propyl}-1,5,6,7-tetrahydroindol-4-one] | 0.79 | 0.79 | 0.96 | – | No | High | 0.67 | 32.1±8.1 | 20.0±3.4 | 3.25 | 6.2 | Significant reduction in avoidance | Significant increase in latency | – | – | – | – | – | – | 0.96
O=C1CCCc2c1ccn2CCCN1CCN(c2cccc(C(F)(F)F)c2)CC1 [NEO-356, 1-{3-[4-(3-Trifluoromethylphenyl)piperazin-1-yl]propyl}-1,5,6,7-tetrahydroindol-4-one] | 2.31 | – | – | No effect | No | High | 0.41 | 21.5±2.9 | 8.8±0.3 | – | – | – | – | – | – | – | No reversal | – | – | –
O=C1CCCc2c1ccn2CCN1CCN(c2cccc(Cl)c2)CC1 [NEO-376, 1-{2-[4-(3-Chloro-phenyl)-piperazin-1-yl]-ethyl}-1,5,6,7-tetrahydro-indol-4-one] | 0.79 | 0.79 | 0.79 | – | No | High | 0.43 | 20.4±1.8 | 9.4±0.3 | 17.5 | – | – | significant increase in latency | – | – | – | – | – | No effect on escape or avoidance | –
